From ChEMBL document CHEMBL1123796, “New antitumor agents containing the anthracene nucleus” (1987)

Assays:
Type in all cases: functional
[1] = tested on: RPMI-8226; assay: Effect on DNA synthesis was determined by incorporation of radioligand into 8226 human myeloma cells at a concentration of 10 ug/mL (*: >1 log cell kill)
[2] = tested on: Mus musculus; assay: Tested for percent average weekly weight change in mice at a significant dose of 80 mg/kg administered intraperitoneally; conditions: route intraperitoneal
[3] = tested on: L1210; assay: Antileukemic activity against L-1210 cells in mice at a dose of 80 mg/kg administered intraperitoneally after 1 day treatment; conditions: Mus musculus, L1210, ip, 24 h, route intraperitoneal
[4] = tested on: Mus musculus; assay: Tested for skin toxicity in BALB/c mice at a significant dose of 0.25 mg/kg administered intraintradermally and involved concentric circular areas of erythema
[5] = tested on: Mus musculus; assay: Tested for high-dose toxicity in mice at a significant dose of 80 mg/kg administered intraperitoneally after 1 days of treatment; conditions: route intraperitoneal
[6] = tested on: L1210; assay: Effect on RNA synthesis was determined by incorporation of radioligand into L1210 murine leukemia at a concentration of 1 ug/mL. (*: >1 log cell kill); conditions: Mus musculus
[7] = tested on: L1210; assay: Effect on DNA synthesis was determined by incorporation of radioligand into L1210 murine leukemia at a concentration of 0.3 ug/mL (*: >50% cell kill); conditions: Mus musculus
[8] = tested on: P388; assay: Antileukemic activity against P-388 in mice at a dose of 60 mg/kg administered intraperitoneally after 1 day treatment; conditions: Mus musculus, P388, ip, 24 h, route intraperitoneal
[9] = tested on: RPMI-8226; assay: Effect on DNA synthesis was determined by incorporation of radioligand into 8226 human myeloma cells at a concentration of 0.01 ug/mL
[10] = tested on: Mus musculus; assay: Tested for skin toxicity in BALB/c mice at a significant dose of 2.00 mg/kg administered intraintradermally and involved concentric circular areas of induration.
[11] = tested on: Mus musculus; assay: Tested for skin toxicity in BALB/c mice administered intraintradermally and involved concentric circular areas of ulceration
[12] = tested on: RPMI-8226; assay: Effect on RNA synthesis was determined by incorporation of radioligand into 8226 human myeloma cells at a concentration of 1 ug/mL. (*: >1 log cell kill)
[13] = tested on: WiDr; assay: Tested in vitro for inhibitory activity of human tumor cell growth against WIDR colon tumor, by using clonogenic assays.; conditions: read-out: ID50 (the source's name)
[14] = tested on: Mus musculus; assay: Tested for percent average weekly weight change in mice at a significant dose of 45 mg/kg administered intraperitoneally after 5 days of treatment; conditions: route intraperitoneal
[15] = tested on: Mus musculus; assay: Tested for percent average weekly weight change in mice at a significant dose of 90 mg/kg administered intraperitoneally after 1 days of treatment; conditions: route intraperitoneal
[16] = tested on: L1210; assay: Antileukemic activity against L-1210 cells in mice at a dose of 90 mg/kg administered intraperitoneally after 1 day treatment; conditions: Mus musculus, L1210, ip, 24 h, route intraperitoneal
[17] = tested on: Mus musculus; assay: Tested for high-dose toxicity in mice at a significant dose of 52.5 mg/kg administered intraperitoneally after 5 days of treatment; conditions: route intraperitoneal
[18] = tested on: Mus musculus; assay: Tested for high-dose toxicity in mice at a significant dose of 70 mg/kg administered intraperitoneally after 5 days of treatment; conditions: route intraperitoneal
[19] = tested on: Mus musculus; assay: Tested for skin toxicity in BALB/c mice at a significant dose of 2.00 mg/kg administered intraintradermally and involved concentric circular areas of erythema
[20] = tested on: P388; assay: Antileukemic activity against P-388 in mice at a dose of 80 mg/kg administered intraperitoneally after 1 day treatment; conditions: Mus musculus, P388, ip, 24 h, route intraperitoneal
[21] = tested on: RPMI-8226; assay: Effect on DNA synthesis was determined by incorporation of radioligand into 8226 human myeloma cells at a concentration of 0.3 ug/mL (*: >50% cell kill)
[22] = tested on: L1210; assay: Effect on RNA synthesis was determined by incorporation of radioligand into L1210 murine leukemia at a concentration of 0.01 ug/mL; conditions: Mus musculus
[23] = tested on: RPMI-8226; assay: Effect on DNA synthesis was determined by incorporation of radioligand into 8226 human myeloma cells at a concentration of 1 ug/mL. (*: >1 log cell kill)
[24] = tested on: L1210; assay: Effect on DNA synthesis was determined by incorporation of radioligand into L1210 murine leukemia at a concentration of 1 ug/mL. (*: >1 log cell kill); conditions: Mus musculus
[25] = tested on: Mus musculus; assay: Tested for percent average weekly weight change in mice at a significant dose of 70 mg/kg administered intraperitoneally after 5 days of treatment; conditions: route intraperitoneal
[26] = tested on: L1210; assay: Effect on RNA synthesis was determined by incorporation of radioligand into L1210 murine leukemia at a concentration of 0.3 ug/mL (*: >50% cell kill); conditions: Mus musculus
[27] = tested on: L1210; assay: Antileukemic activity against L-1210 cells in mice at a dose of 60 mg/kg administered intraperitoneally after 1 day treatment; conditions: Mus musculus, L1210, ip, 24 h, route intraperitoneal
[28] = tested on: L1210; assay: Effect on protein synthesis was determined by incorporation of radioligand into L1210 murine leukemia at a concentration of 1 ug/mL. (*: >1 log cell kill); conditions: Mus musculus
[29] = tested on: Mus musculus; assay: Tested for skin toxicity in BALB/c mice at a significant dose of 0.25 mg/kg administered intraintradermally and involved concentric circular areas of induration.
[30] = tested on: RPMI-8226; assay: Effect on RNA synthesis was determined by incorporation of radioligand into 8226 human myeloma cells at a concentration of 0.3 ug/mL (*: >50% cell kill)
[31] = tested on: L1210; assay: Antileukemic activity against L-1210 cells in mice at a dose of 30 mg/kg administered intraperitoneally after 5 day treatment; conditions: Mus musculus, L1210, ip, 120 h, route intraperitoneal
[32] = tested on: RPMI-8226; assay: Effect on protein synthesis was determined by incorporation of radioligand into 8226 human myeloma cells at a concentration of 0.01 ug/mL
[33] = tested on: Mus musculus; assay: Tested for high-dose toxicity in mice at a significant dose of 45 mg/kg administered intraperitoneally after 5 days of treatment; conditions: route intraperitoneal
[34] = tested on: Mus musculus; assay: Tested for high-dose toxicity in mice at a significant dose of 90 mg/kg administered intraperitoneally after 1 days of treatment; conditions: route intraperitoneal
[35] = tested on: L1210; assay: Antileukemic activity against L-1210 cells in mice at a dose of 60 mg/kg administered intraperitoneally after 5 day treatment; conditions: Mus musculus, L1210, ip, 120 h, route intraperitoneal
[36] = tested on: RPMI-8226; assay: In vitro inhibition of human 8226 myeloma tumor cell line growth.; conditions: read-out: ID50 (the source's name)
[37] = tested on: L1210; assay: Effect on RNA synthesis was determined by incorporation of radioligand into L1210 murine leukemia at a concentration of 0.5 ug/mL. (*: >1 log cell kill); conditions: Mus musculus
[38] = tested on: Mus musculus; assay: Tested for skin toxicity in BALB/c mice at a significant dose of 2.5 mg/kg administered intraintradermally and involved concentric circular areas of ulceration
[39] = tested on: P388; assay: Antileukemic activity against P-388 in mice at a dose of 90 mg/kg administered intraperitoneally after 1 day treatment; conditions: Mus musculus, P388, ip, 24 h, route intraperitoneal
[40] = tested on: P388; assay: Antileukemic activity against P-388 in mice at a dose of 30 mg/kg administered intraperitoneally after 5 day treatment; conditions: Mus musculus, P388, ip, 120 h, route intraperitoneal
[41] = tested on: Mus musculus; assay: Tested for percent average weekly weight change in mice at a significant dose of 30 mg/kg administered intraperitoneally; conditions: route intraperitoneal

CN(C)CCNCc1c2ccccc2c(CNCCN(C)C)c2ccccc12
inhibition at 10 µg/mL [1]: 82.2%
Lethality [2]: -3%
ILS at 80 mg/kg [3]: 14%
Extent of skin lesions [4]: 0.3 cm**2
Lethality [5]: 10%
Median day of death [5]: 12
inhibition at 1 µg/mL [6]: 6.9%
inhibition at 0.3 µg/mL [7]: 0%
ILS at 60 mg/kg [8]: 11%
inhibition at 0.01 µg/mL [9]: 0%
Extent of skin lesions [10]: 5.3 cm**2
Extent of skin lesions [11]: 1.9 cm**2
inhibition at 1 µg/mL [12]: 70.4%
IC50 [13]: 180 nM
Average weekly weight change [14]: -12%
Average weekly weight change [15]: -5%
ILS at 90 mg/kg [16]: 3%
Lethality [17]: 100%
Median day of death [17]: 4
Lethality [18]: 10%
Median day of death [18]: 0
Extent of skin lesions [19]: 3.1 cm**2
ILS at 80 mg/kg [20]: 36%
inhibition at 0.3 µg/mL [21]: 8.4%
inhibition at 0.01 µg/mL [22]: 0%
inhibition at 1 µg/mL [23]: 21.1%
inhibition at 1 µg/mL [24]: 48.7%
Average weekly weight change [25]: -7%
inhibition at 0.3 µg/mL [26]: 0%
ILS at 60 mg/kg [27]: 17%
inhibition at 1 µg/mL [28]: 31.2%
Extent of skin lesions [29]: 0.7 cm**2
inhibition at 0.3 µg/mL [30]: 0%
ILS at 30 mg/kg [31]: 5%
inhibition at 0.01 µg/mL [32]: 67.5%
Lethality [33]: 30%
Median day of death [33]: 2
Lethality [34]: 20%
Median day of death [34]: 10
ILS at 60 mg/kg [35]: 27%
IC50 [36]: 160 nM
inhibition at 0.5 µg/mL [37]: 7.2%
Extent of skin lesions [38]: 3.8 cm**2
ILS at 90 mg/kg [39]: -10%
ILS at 30 mg/kg [40]: 0%
Average weekly weight change [41]: -3%
